The source of these data is patent US11970476B1, “6′-(4-chlorophenyl)-2′-alkoxy-3,4′-bipyridine-3′-carbonitriles as antimicrobial compounds” (KING FAISAL UNIVERSITY, priority 2023, dated 2024).

What all share (assay type): cell-based
Experiment [1] has as its system Aspergillus flavus. Put plainly: Agar plate disc-diffusion, antifungal inhibition zone. Conditions: 72 hours, DMSO control zone subtracted. Here is the method: (§1) The agar plate disc-diffusion method was applied. Sterilized filter papers (6 mm in diameter) were wetted with 10 μL of a solution of 6′-(4-chlorophenyl)-2′-ethoxy-3,4′-bipyridine-3′-carbonitrile (4) or 6′-(4-chlorophenyl)-2′-methoxy-3,4′-bipyridine-3′-carbonitrile (5) to be tested, containing […], and the discs were allowed to air dry. The discs were then placed onto the surface of agar plates (nutrient agar for bacteria and Sabouraud's dextrose agar for fungi) seeded with the test organism. Each plate contained 15 mL of the agar medium, previously seeded with 0.2 mL of the broth culture of each organism pregrown for 18 hours. The plates were incubated at 37° C. for 48 hours, and 72 hours for fungi. The inhibition zones were measured in mm. Discs impregnated with DMSO were used as a control, and its inhibition zone was subtracted from the tested compound actual inhibition zone.
(§2) The results of the antimicrobial testing can be observed in Tables 1 and 2, below, using ciprofloxacin as a reference.

For experiment [2], the system named is Chrysosporium keratinophilum. The description is as above. The settings on record: 72 hours, DMSO control zone subtracted. Here is the method: as §1, §2
Experiment [3] relates to Escherichia coli. In words: Agar plate disc-diffusion, antibacterial inhibition zone. Conditions: DMSO control zone subtracted. As to the method:
as §1, §2

The test system of experiment [4] is Bacillus cereus. Described as above. The settings on record: DMSO control zone subtracted. As to the method: as §1, §2
Experiment [5] deals with Pseudomonas aeruginosa. Described as above. The settings on record: DMSO control zone subtracted. Here is the method: as §1, §2
Experiment [6] deals with Staphylococcus aureus. The experiment is described as above. Conditions: DMSO control zone subtracted. As to the method:
as §1, §2

Experiment [7] has as its system different microbes. Put plainly: Antimicrobial testing, overall statement on Tables 1 and 2. The settings on record: summary of Tables 1 and 2, bacteria and fungi. Here is the method:
as §1
Their antibacterial activity was screened against gram positive bacteria namely Bacillus cereus and Staphylococcus aureus and gram-negative bacterial strains namely Pseudomonas aeruginosa and Escherichia coli, while their antifungal activity was screened against Aspergillus flavus and Chrysosporium keratinophilum.

The mark [8] stands for this setting: A = concentration of comp. = 10,000 μL.
Setting [9] is: B = concentration of comp. = 30,000 μL.
Where [10] appears, read: C = concentration of comp. = 50,000 μL.

With `COc1nc(-c2ccc(Cl)cc2)cc(-c2cccnc2)c1C#N` [Compound 5, 6′-(4-chlorophenyl)-2′-methoxy-3,4′-bipyridine-3′-carbonitrile], the inhibition zone is 25 mm in experiment [1] (setting [8]); 28 mm in experiment [1] (setting [9]); 40 mm in experiment [1] (setting [10]); 23 mm in experiment [2] (setting [8]); 28 mm in experiment [2] (setting [9]); 41 mm in experiment [2] (setting [10]). In addition, the inhibition zone worked out at 28 mm in experiment [3] (setting [8]); 37 mm in experiment [3] (setting [9]); 53 mm in experiment [3] (setting [10]); 26 mm in experiment [4] (setting [8]); 28 mm in experiment [4] (setting [9]); 39 mm in experiment [4] (setting [10]). Further, the inhibition zone in experiment [5] (setting [8]) was 26 mm; in experiment [5] (setting [9]), 30 mm; in experiment [5] (setting [10]), 42 mm; in experiment [6] (setting [8]), 17 mm; in experiment [6] (setting [9]), 24 mm; in experiment [6] (setting [10]), 30 mm. In addition, the “antimicrobial activities (in words)” value in experiment [7] is listed as “high antimicrobial activities”.

Turning to `CCOc1nc(-c2ccc(Cl)cc2)cc(-c2cccnc2)c1C#N` [Compound 4, 6′-(4-chlorophenyl)-2′-ethoxy-3,4′-bipyridine-3′-carbonitrile], the inhibition zone in experiment [1] (setting [8]) worked out at 21 mm; in experiment [1] (setting [9]), 26 mm; in experiment [1] (setting [10]), 37 mm; in experiment [2] (setting [8]), 24 mm; in experiment [2] (setting [9]) it was 29 mm; in experiment [2] (setting [10]), 42 mm. In addition, the inhibition zone in experiment [3] (setting [8]) came out at 27 mm; in experiment [3] (setting [9]), 38 mm; in experiment [3] (setting [10]) it was 52 mm; in experiment [4] (setting [8]), 24 mm; in experiment [4] (setting [9]), 27 mm; in experiment [4] (setting [10]), 39 mm. Besides, the inhibition zone in experiment [5] (setting [8]) turned out to be 25 mm; in experiment [5] (setting [9]), 29 mm; in experiment [5] (setting [10]), 39 mm; in experiment [6] (setting [8]), 15 mm; in experiment [6] (setting [9]) it was 18 mm; in experiment [6] (setting [10]) it was 31 mm. In experiment [7], the “antimicrobial activities (in words)” value is “high antimicrobial activities”.

As for `O=C(O)c1cn(C2CC2)c2cc(N3CCNCC3)c(F)cc2c1=O` [Cip., ciprofloxacin, reference compound], the inhibition zone in experiment [1] (setting [8]) stood at 29 mm; in experiment [1] (setting [9]) it was 30 mm; in experiment [1] (setting [10]), 42 mm; in experiment [2] (setting [8]), 29 mm; in experiment [2] (setting [9]), 30 mm; in experiment [2] (setting [10]), 53 mm. Besides, the inhibition zone in experiment [3] (setting [8]) is 30 mm; in experiment [3] (setting [9]), 39 mm; in experiment [3] (setting [10]), 60 mm; in experiment [4] (setting [8]), 29 mm; in experiment [4] (setting [9]) it was 30 mm; in experiment [4] (setting [10]), 42 mm. For the same molecule, the inhibition zone in experiment [5] (setting [8]) is 29 mm; in experiment [5] (setting [9]), 30 mm; in experiment [5] (setting [10]), 53 mm; in experiment [6] (setting [8]) it was 43 mm; in experiment [6] (setting [9]), 44 mm; in experiment [6] (setting [10]), 53 mm.
